Entries after “also recorded” stand apart in the source; their conditions may differ.
Experiments:
[1] = tested on: A2780 cells; test: MTT cytotoxicity assay; type: cell-based, human; conditions: for % (absorbance relative to control) / Abs.: 72 h; for Abs.: absorbance at 570 nm (MTT); for IC50: A2780, 72 h continuous treatment, MTT
Procedure: 1—Cell lines and cell culture. The human ovarian adenocarcinoma cell line A2780 was used to evaluate the antiproliferative activity of taxoids. These cells were grown in either RPMI medium supplemented with 10% fetal bovine serum and penicillin-streptomycin antibiotics. Cells were maintained in culture at 37° C. in an atmosphere of 5% CO2.
2—Cytotoxicity assay. Exponentially growing cells (2-3×10^3 cells/[…]) were seeded in 96-well plates and incubated for 16 h. Cells were then treated continuously with the extracts. 72 h later, cell survival was evaluated by replacing the culture media with […] fresh medium containing 10 mM 4-(2-hydroxyethyl)-1 -piperazineethamesulfonic acid buffer, pH 7.4. and […] of 2.5 mg/ml of 3-(4,5-dimethylthiazo-2-yl)-2,5-diphenyltetrazolium bromide (MTT) in PBS, pH 7.4, were then added. After as 3-4 h of incubation at 37° C., the medium and MTT were removed, and […] of DMSO was added to dissolve the precipitate of reduced MTT, followed by addition of […] glycine buffer (0.1M glycine plus 0.1M NaCl, pH 10.5). The formazan crystals were then dissolved and the absorbance was determined at 570 nm with a microplate reader (BIORAD, model 450). The MTT assay distinguished between viable and non-viable cells on the basis for the requirement of physiologically active mitochondria to metabolize the MTT only in viable cells. The IC50 was calculated as the concentration of drug causing a 50% inhibition in the absorbance compared to cells treated with solvent alone, Table I.

[2] = Toxicity in DA3 tumor-bearing BALB/c mice (body weight, mortality); conditions: given twice at 40 mg/kg, iv
Source text: Animal. Female BALB/c mice (Charles River Inc.) were used to grow DA3 tumors. Mice were maintained at the Lady Davis Institute [LDI] Animal Care Facility.
Treatment was initiated when tumors become palpable. Drug was given twice (day 1 and day 3) by iv. Control animals were given the same volume of saline solution. The dose of each drug was normalized to mouse body weight.
Tumor measurement. animals were examined every day but the tumor growth was monitored every second or third day using calipers. Parameters measured are: tumor measured along the longest axis (length) and the perpendicular shortest axis (width) and the relative tumor volume (in cm^3) was calculated by the formula: [Length (cm)×(width cm)^2]/2. Tumors which reach the limit size permitted by the Canadian regulation on the use of laboratory animals, or showing any apparent distress or discomfort were immediately sacrificed independently of the experimental protocol [usually 2-3 cm^3 but this depend on animal status and the decision is taken by the animal room personnel]. Animals were subjected, on a daily basis, to general examination.

[3] = tested on: DA3 mammary adenocarcinoma tumors; test: In vivo study using DA3 cell model (tumour volume); set-up: species or system mouse
Source text: Origin: The DA3 cell line used in this study was derived from a hyperplastic mammary outgrowth (preneoplastic lesion) treated with 7,12-dimethylbenzanthracene (DMBA). DMBA-treated explant was then transplanted into the mammary glands of a female BALB/c mouse, and the resulting tumor was used to establish the DA3 cell line. DA3 is an immunogenic and non-metastatic mammary adenocarcinoma.
Source: The cell line used in our study was originally obtained from Dr. Medina in 1993. Stocks of these cells were generated and stored during early passages in liquid nitrogen. One vial from this early stock was cultured and cells generated were used to confirm the absence of viral and mycoplasma infections. Cells were then propagated and stocks of these cells were established and stored in liquid nitrogen for further studies with Dup compounds.
Cell culture: DA3 cells were maintained in RPMI 1640 medium supplemented with 1M mercaptoethanol, 1M Hepes buffer solution, […] sodium pyruvate, 200 mM L-glutamine, 10 mM non-essential amino acids, 1M vitamins, 10% fetal bovine serum, 1% penicillin-streptomycin. Cells were maintained at 37° C. under 5% CO2.
Animal. […] Mice were maintained at the Lady Davis Institute [LDI] Animal Care Facility.
Tumor cell inoculation and treatments. After one week acclimatisation, mice were randomized into a group of 5 per cage. Cages were randomly assigned to specific experimental groups. The mice were then labeled by numbers using the “ear punching” method. DA3 cells were transplanted subcutaneously to mice, as a suspension of tumor cells [1×10^6 viable cells per 0.1 ml], in the right flank. All animals were inoculated at the same site.
For tumor induction, cells were grown to 70% confluence in complete medium and then collected using trypsin-EDTA solution [0.05% trypsin, 0.53 mM EDTA-4Na in HBSS Ca^++, Mg^++ and NaHCO3 free]. cells were then centrifuged and washed three times with phosphate buffer solution and resuspended at a dilution of 0.1 to 1×10^6 cells/0.1 ml. […]

[4] = tested on: tubulin; test: In vitro microtubule assay (tubulin polymerisation, absorbance at 350 nm); type: biochemical, calf; conditions: for concentration dependence of tubulin polymerisation: 5 μM and 10 μM (FIG. 2); for enhancement of tubulin polymerisation / antimitotic activity: same concentration (10 μM), FIG. 3; for tubulin polymerisation / antimitotic activity compared with paclitaxel: same concentration (FIGS. 1-4)
[5] = listed as semi-synthetic Canadensol

Row | SMILES | % (absorbance relative to control) ([1]; 0.2 nM) | Abs. ([1]; 0.2 nM) | % (absorbance relative to control) ([1]; 2 nM) | Abs. ([1]; 2 nM) | % (absorbance relative to control) ([1]; 10 nM) | Abs. ([1]; 10 nM) | % (absorbance relative to control) ([1]; 20 nM) | Abs. ([1]; 20 nM) | % (absorbance relative to control) ([1]; 100 nM) | Abs. ([1]; 100 nM) | % (absorbance relative to control) ([1]; 200 nM) | Abs. ([1]; 200 nM) | IC50 ([1]; Homo sapiens) | also measured
1 | CCCC(=O)N[C@@H](c1ccccc1)[C@@H](O)C(=O)O[C@H]1C[C@@]2(O)[C@@H](OC(=O)c3ccccc3)[C@@H]3[C@]4(OC(C)=O)CO[C@@H]4C[C@H](O)[C@@]3(C)C(=O)[C@H](OC(C)=O)C(=C1C)C2(C)C [taxcultine] | 100.00% | 1.535 | 100.07% | 1.536 | 71.21% | 1.093 | 36.09% | 0.554 | 2.08% | 0.032 | 1.43% | 0.022 | – | IC50 [1]: 0.016 µM
2 | CC(=O)OC1C(=O)[C@]2(C)C(O)CC3OCC3(OC(C)=O)C2C(OC(=O)c2ccccc2)C2(O)CC(OC(=O)C(O)C(NC(=O)C(C)C)c3ccccc3)C(C)=C1C2(C)C (some centres unmarked) [Canadensol] | 100.00% | 1.598 | 94.12% | 1.504 | 77.97% | 1.246 | 50.81% | 0.812 | 1.63% | 0.026 | 1.13% | 0.018 | 0.0213 µM | toxic effect [2]: No toxic effect was observed; period in which antitumor effect was significant ([3]; given twice at 40 mg/kg, iv): significant from day 30 to day 40 of tumor growth; antitumor activity ([3]; given twice at 40 mg/kg, iv, FIG. 9): induce antitumor activity; concentration dependence of tubulin polymerisation [4]: concentration dependent antimitotic effect; concentration dependence of tubulin polymerisation [4, 5]: dose-dependent response; enhancement of tubulin polymerisation / antimitotic activity [4]: more effective; enhancement of tubulin polymerisation / antimitotic activity [4, 5]: greater enhancement of tubulin polymerisation than semi-synthetic Taxcultine (ssT) or paclitaxel (P); tubulin polymerisation / antimitotic activity compared with paclitaxel [4]: more active than paclitaxel and taxcultine; also recorded: higher antimitotic activity than paclitaxel; tubulin polymerisation / antimitotic activity compared with paclitaxel [4, 5]: higher degree of tubulin polymerisation than Paclitaxel; inhibiting the growth of A2780 (comparison) ([1]; FIGS. 6, 7 and Table I): as active as paclitaxel or taxcultine
3 | CC(=O)O[C@H]1C(=O)[C@@]2(C)[C@H]([C@H](OC(=O)c3ccccc3)[C@]3(O)C[C@H](OC(=O)[C@H](O)[C@@H](NC(=O)c4ccccc4)c4ccccc4)C(C)=C1C3(C)C)[C@]1(OC(C)=O)CO[C@@H]1C[C@@H]2O [paclitaxel] | 101.54% | 1.455 | 102.16% | 1.464 | 81.09% | 1.162 | 36.43% | 0.522 | 1.47% | 0.021 | 1.40% | 0.02 | 0.017 µM | antitumor activity ([3]; tolerable doses (20-40 mg/Kg), iv day 1 and day 3): no significant antitumor activity
